One may read the GI50 as the concentration giving 50% growth inhibition. As a reminder, the TGI is the concentration giving total growth inhibition. A low value points to greater sensitivity of the cells.

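Cultured in 96-well plates, cells were exposed to test compound for 48 hours across five concentrations. The concentration for 50% growth inhibition is given as GI50. TGI marks complete inhibition of growth.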 Some results are limits rather than exact numbers.

Data on four compounds can be found in PubChem BioAssay (NCI).

The test system of the first experiment is HCC-2998 colon. Put plainly: DTP human tumour cell line panel, 48 h.
As to `O=C1CCC(N2Cc3cc(CNC(=O)C(F)(F)c4ccc(Cl)cc4)ccc3C2=O)C(=O)N1` (stereo not drawn), the GI50 is 14 µM and the TGI is over 100 µM.
On the same counts, the results for `O=C(OCc1ccc2ccccc2n1)c1cn(C2CC2)c2cc(N3CCN(Cc4ccc5ccccc5n4)CC3)c(F)cc2c1=O` are 34 µM and over 100 µM.
As for `O=C(O)c1ccc(C(=O)c2ccccc2)c(C(=O)O)c1`, the concentration for total growth inhibition (TGI) was over 100 µM.
On to `Cc1ccc(/C=N\NC(=O)c2[nH]c3ccc(F)cc3c2-c2ccccc2)cc1`, for which the GI50 is 0.0321 µM and the concentration for total growth inhibition (TGI) was found to be 16.5 µM.

The subject of the next experiment is SF-268 CNS. Put plainly: DTP human tumour cell line panel, 48 h.
Turning to `O=C1CCC(N2Cc3cc(CNC(=O)C(F)(F)c4ccc(Cl)cc4)ccc3C2=O)C(=O)N1` (stereo not drawn), the GI50 is over 100 µM and the total growth inhibition concentration (TGI) is over 100 µM.
`O=C(OCc1ccc2ccccc2n1)c1cn(C2CC2)c2cc(N3CCN(Cc4ccc5ccccc5n4)CC3)c(F)cc2c1=O`: the GI50 is over 62.5 µM and the total growth inhibition concentration (TGI) is over 100 µM.
The compound `O=C(O)c1ccc(C(=O)c2ccccc2)c(C(=O)O)c1` registered a TGI of over 100 µM.
As to `Cc1ccc(/C=N\NC(=O)c2[nH]c3ccc(F)cc3c2-c2ccccc2)cc1`, the GI50 was 0.23 µM and the TGI came to 42.5 µM.

The next experiment concerns A498 renal. Put plainly: DTP human tumour cell line panel, 48 h.
In the case of `O=C1CCC(N2Cc3cc(CNC(=O)C(F)(F)c4ccc(Cl)cc4)ccc3C2=O)C(=O)N1` (stereo not drawn), the GI50 is 8.17 µM and the TGI was over 100 µM.
The matching figures for `O=C(OCc1ccc2ccccc2n1)c1cn(C2CC2)c2cc(N3CCN(Cc4ccc5ccccc5n4)CC3)c(F)cc2c1=O`: 25.2 µM and over 82.1 µM.
`O=C(O)c1ccc(C(=O)c2ccccc2)c(C(=O)O)c1` gave a TGI of over 100 µM.
For `Cc1ccc(/C=N\NC(=O)c2[nH]c3ccc(F)cc3c2-c2ccccc2)cc1`, the GI50 was 0.0387 µM and the TGI came to 24.5 µM.

For a further experiment, the system named is SNB-19 CNS. The experiment is described as follows: DTP human tumour cell line panel, 48 h.
Regarding `O=C1CCC(N2Cc3cc(CNC(=O)C(F)(F)c4ccc(Cl)cc4)ccc3C2=O)C(=O)N1` (stereo not drawn), the GI50 is over 87.1 µM and the TGI was over 100 µM.
The matching figures for `O=C(OCc1ccc2ccccc2n1)c1cn(C2CC2)c2cc(N3CCN(Cc4ccc5ccccc5n4)CC3)c(F)cc2c1=O`: over 81.6 µM and over 100 µM.
On to `O=C(O)c1ccc(C(=O)c2ccccc2)c(C(=O)O)c1`, for which the total growth inhibition concentration (TGI) is over 100 µM.
Regarding `Cc1ccc(/C=N\NC(=O)c2[nH]c3ccc(F)cc3c2-c2ccccc2)cc1`, the 50% growth inhibitory concentration (GI50) was 0.0493 µM and the total growth inhibition concentration (TGI) is over 100 µM.

For the next experiment, the system named is CCRF-CEM leukemia. Put plainly: DTP human tumour cell line panel, 48 h.
As for `O=C1CCC(N2Cc3cc(CNC(=O)C(F)(F)c4ccc(Cl)cc4)ccc3C2=O)C(=O)N1` (stereo not drawn), the GI50 is under 0.0156 µM.
Turning to `O=C(OCc1ccc2ccccc2n1)c1cn(C2CC2)c2cc(N3CCN(Cc4ccc5ccccc5n4)CC3)c(F)cc2c1=O`, the GI50 was over 100 µM and the TGI was over 100 µM.
The compound `O=C(O)c1ccc(C(=O)c2ccccc2)c(C(=O)O)c1` registered a total growth inhibition concentration (TGI) of over 100 µM.
Regarding `Cc1ccc(/C=N\NC(=O)c2[nH]c3ccc(F)cc3c2-c2ccccc2)cc1`, the GI50 is 0.0275 µM and the TGI is over 100 µM.

The subject of a further experiment is EKVX NSCLC. The experiment is described as follows: DTP human tumour cell line panel, 48 h.
`O=C1CCC(N2Cc3cc(CNC(=O)C(F)(F)c4ccc(Cl)cc4)ccc3C2=O)C(=O)N1` (stereo not drawn): the GI50 was over 100 µM and the TGI is over 100 µM.
For the compound `O=C(OCc1ccc2ccccc2n1)c1cn(C2CC2)c2cc(N3CCN(Cc4ccc5ccccc5n4)CC3)c(F)cc2c1=O`, the GI50 is 29.6 µM and the TGI was over 100 µM.
In turn, `O=C(O)c1ccc(C(=O)c2ccccc2)c(C(=O)O)c1` gave a TGI of over 100 µM.
With `Cc1ccc(/C=N\NC(=O)c2[nH]c3ccc(F)cc3c2-c2ccccc2)cc1`, the GI50 was 0.0691 µM and the TGI was over 100 µM.

The subject of a further experiment is NCI-H226 lung. Put plainly: DTP human tumour cell line panel, 48 h.
In the case of `O=C1CCC(N2Cc3cc(CNC(=O)C(F)(F)c4ccc(Cl)cc4)ccc3C2=O)C(=O)N1` (stereo not drawn), the GI50 is 1.75 µM and the total growth inhibition concentration (TGI) is over 100 µM.
The matching figures for `O=C(OCc1ccc2ccccc2n1)c1cn(C2CC2)c2cc(N3CCN(Cc4ccc5ccccc5n4)CC3)c(F)cc2c1=O`: 22.1 µM and 91.6 µM.
`O=C(O)c1ccc(C(=O)c2ccccc2)c(C(=O)O)c1` showed a TGI of over 100 µM.
As for `Cc1ccc(/C=N\NC(=O)c2[nH]c3ccc(F)cc3c2-c2ccccc2)cc1`, the GI50 was 0.0321 µM and the concentration for total growth inhibition (TGI) is over 100 µM.

Another experiment deals with A549 NSCLC. The experiment is described as follows: DTP human tumour cell line panel, 48 h.
With `O=C1CCC(N2Cc3cc(CNC(=O)C(F)(F)c4ccc(Cl)cc4)ccc3C2=O)C(=O)N1` (stereo not drawn), the GI50 is over 100 µM and the TGI is over 100 µM.
Take `O=C(OCc1ccc2ccccc2n1)c1cn(C2CC2)c2cc(N3CCN(Cc4ccc5ccccc5n4)CC3)c(F)cc2c1=O`: the GI50 was 98.2 µM and the total growth inhibition concentration (TGI) was over 100 µM.
`O=C(O)c1ccc(C(=O)c2ccccc2)c(C(=O)O)c1`: the TGI was over 100 µM.
For the compound `Cc1ccc(/C=N\NC(=O)c2[nH]c3ccc(F)cc3c2-c2ccccc2)cc1`, the concentration for 50% growth inhibition (GI50) was 0.0344 µM and the total growth inhibition concentration (TGI) is over 100 µM.

A further experiment relates to M14 melanoma. The experiment is described as follows: DTP human tumour cell line panel, 48 h.
With `O=C1CCC(N2Cc3cc(CNC(=O)C(F)(F)c4ccc(Cl)cc4)ccc3C2=O)C(=O)N1` (stereo not drawn), the GI50 was 38.4 µM and the TGI was over 100 µM.
For the compound `O=C(OCc1ccc2ccccc2n1)c1cn(C2CC2)c2cc(N3CCN(Cc4ccc5ccccc5n4)CC3)c(F)cc2c1=O`, the GI50 was over 56.3 µM and the TGI stood at 99.8 µM.
In turn, `O=C(O)c1ccc(C(=O)c2ccccc2)c(C(=O)O)c1` returned a TGI of over 100 µM.
Consider `Cc1ccc(/C=N\NC(=O)c2[nH]c3ccc(F)cc3c2-c2ccccc2)cc1`, for which the GI50 was 0.0275 µM.

In a further experiment the test system is OVCAR-4 ovarian. Put plainly: DTP human tumour cell line panel, 48 h.
Turning to `O=C1CCC(N2Cc3cc(CNC(=O)C(F)(F)c4ccc(Cl)cc4)ccc3C2=O)C(=O)N1` (stereo not drawn), the GI50 is 1.48 µM and the TGI was over 100 µM.
For `O=C(OCc1ccc2ccccc2n1)c1cn(C2CC2)c2cc(N3CCN(Cc4ccc5ccccc5n4)CC3)c(F)cc2c1=O`, the GI50 is over 100 µM and the TGI is over 100 µM.
`O=C(O)c1ccc(C(=O)c2ccccc2)c(C(=O)O)c1` showed a concentration for total growth inhibition (TGI) of over 100 µM.
Turning to `Cc1ccc(/C=N\NC(=O)c2[nH]c3ccc(F)cc3c2-c2ccccc2)cc1`, the GI50 was 0.147 µM and the TGI is over 100 µM.
